In patent US12569473B2, “Methods to treat respiratory infection utilizing castanospermine analogs” (60 Degrees Pharmaceuticals, Inc., priority 2022, dated 2026):
pEC50: −log10 of the molar value. Structures can show the parent of a compound that is named as a salt.

Legend:
[1] = Cytotoxicity, neutral red assay, HeLa Ohio cells; assay type: cell-based; conditions: human, compounds tested at 0.3, 3, 30 and 300 microM, unit inferred
Experimental: (§1) The efficacy of celgosivir and castanospermine against RSV and human rhinovirus-14 was assessed in vitro. For RSV studies, embryonic African green monkey kidney cells (MA-104) were grown in minimal essential medium (MEM) supplemented with 0.1% NaHCO3 and 10% fetal bovine serum. When performing antiviral assays, serum was reduced to 2% and […] gentamicin was added to the medium. RSV strain A2 was used for the studies. For rhinovirus studies, the HeLa Ohio cell line was used in place of MA-104 cells.
CPE inhibition assays with visual quantification of antiviral activity and cytotoxicity were performed as described by Sidwell and Huffman (1971) with slight modifications. Sidwell, R. W. and Huffman, J. H. (1971) Use of disposable micro-tissue culture plates for antiviral and interferon induction studies. Appl. Microbiol. 22, […]. […] All compounds were assayed for virus inhibition in quadruplicate and for cytotoxicity in duplicate. For rhinovirus studies, Pirodavir was applied at a concentration of 0.001-1 μg/ml as the positive control compound. For RSV studies, the positive control compound was Ribavirin applied at a concentration of 0.5-500 μg/ml. For each compound, two wells were set aside as uninfected, untreated cell controls per test and four wells per test received virus only and represented controls for virus replication. […] A selective index (S.I.) was calculated for each compound (SI.=(IC50)/(EC50)).
Neutral red assay of CPE inhibition and cytotoxicity was performed by a modified method as described by Cavenaugh et al. (1990). […] Briefly, medium was removed from each well of a plate scored for CPE from the visual CPE inhibition assay, 0.2 ml of neutral red (0.034% in PSS) was added to each of the wells of that plate and the plate incubated for 2 h at 37° C. in the dark. […] Absorbances at 540 and 450 nm were read with a microplate reader (Bio-Tek EL 1309; Bio-Tek Instruments). […] Absorbance values were expressed as percentages of untreated controls and EC50 and IC50 values were calculated by regression analysis

RSV strain A2 = test: CPE inhibition assay, visual examination, RSV; assay type: cell-based; conditions: for pEC50: human respiratory syncytial virus, unit inferred
Experimental: as §1
CPE inhibition assays with visual quantification of antiviral activity and cytotoxicity were performed as described by Sidwell and Huffman (1971) with slight modifications. Sidwell, R. W. and Huffman, J. H. (1971) Use of disposable micro-tissue culture plates for antiviral and interferon induction studies. Appl. Microbiol. 22, […]. […] All compounds were assayed for virus inhibition in quadruplicate and for cytotoxicity in duplicate. For rhinovirus studies, Pirodavir was applied at a concentration of 0.001-1 μg/ml as the positive control compound. For RSV studies, the positive control compound was Ribavirin applied at a concentration of 0.5-500 μg/ml. For each compound, two wells were set aside as uninfected, untreated cell controls per test and four wells per test received virus only and represented controls for virus replication. […] For all CPE-based assays, the 50% effective concentration (EC50) was calculated by regression analysis using the means of the CPE ratings at each concentration of compound. Morphological changes due to compound cytotoxicity were graded on a scale of 0-5; grade 5 was defined as 100% cytotoxicity. The 50% cytotoxic dose (IC50) was calculated by regression analysis. A selective index (S.I.) was calculated for each compound (SI.=(IC50)/(EC50)).

RSV [strain A/A2] [2] = test: Pulmonary histopathology in RSV-infected cotton rats; assay type: in vivo, Cotton rats [Sigmodon hispidus]; conditions: for lung histopathology scores (RSV-induced inflammation): Day 5 post infection, celgosivir 25, 50 or 100 mg/kg BID from one day before or after infection, synagis 2.5 mg/kg i.m. once per day, vs vehicle
Experimental: (§2) Cotton rats [Sigmodon hispidus, 2 male & 3 female, 6-8 weeks old] provided with standard rodent chow and water ad lib, were infected intranasally with RSV [strain A/A2, 10^5 pfu] on Day 0. Animals received celgosivir [25, 50 or 100 mg/kg BID for total daily doses of 50, 100 or 200 mg/kg] daily beginning one day before or after infection and were sacrificed on Day 5-post-infection for histopathology, qPCR, and viral load assessment. Control groups included a [i] positive control Synagis [2.5 mg/kg, i.m, once per day from the first day post-infection], [ii] vehicle control in which vehicle was administered twice per day beginning one day prior to RSV infection, [iii] a vehicle control group that were mock-infected with PBS for which treatment was initiated beginning one day prior to infection, and [iv] an untreated group mock infected with PBS that received no treatment. Animals were weighed on Day −1 and Day 5, and plasma was obtained by retro-orbital bleed on the same days.
(§3) The RSV strain for inoculation [A/A2 (RSV A/A2) (ATCC, Manassas, VA)] was propagated in HEp-2 cells after serial plaque-purification to reduce defective-interfering particles. A pool of virus designated containing approximately 3.0×10^8 pfu/mL in sucrose stabilizing media was used in the experiment. This stock of virus was stored at −80° C. and was previously characterized in vivo in the cotton rat model and validated for upper and lower respiratory tract replication.
Pulmonary Histopathology: Lungs were removed and inflated with 10% neutral buffered formalin to their normal volume, then fixed [using the same solution]. After fixation, lungs were embedded in paraffin, sectioned, and stained with H&E. Four parameters of pulmonary inflammation were evaluated: peribronchiolitis (inflammatory cell infiltration around the bronchioles), perivasculitis (inflammatory cell infiltration around the small blood vessels), interstitial pneumonia (inflammatory cell infiltration and thickening of alveolar walls), and alveolitis (cells within the alveolar spaces). Slides were blindly scored on a 0-4 severity scale. The scores are subsequently converted to a 0-100% normalized scale.
Statistics: Group means for each parameter were evaluated by one-way ANOVA, then individual group means were compared [t-test, with multiple comparison correction] to the RSV-infected, vehicle-treated control group. P<0.05 was considered statistically significant.

RSV [strain A/A2] [3] = test: Nose and lung viral titers in RSV-infected cotton rats; assay type: in vivo, Cotton rats [Sigmodon hispidus]; conditions: Day 5 post infection, celgosivir 25, 50 or 100 mg/kg BID from one day before or after infection, synagis 2.5 mg/kg i.m. once per day, vs vehicle
Experimental: as §2, §3
Viral Titers: Nose and lung homogenates were centrifuged and diluted in EMEM. Confluent HEp-2 monolayers were infected in duplicate with diluted homogenates in 24-well plates. Following one hour incubation at 37° C. […] Plaques were counted and virus titer determined as geometric mean plaque-forming units per gram of tissue±standard error for all animals in a group at a given time.
Statistics: Group means for each parameter were evaluated by one-way ANOVA, then individual group means were compared [t-test, with multiple comparison correction] to the RSV-infected, vehicle-treated control group. […]

[4] = literature (Sorbera et al); cited from earlier work

CCCC(=O)O[C@H]1CN2CC[C@H](O)[C@@H]2[C@@H](O)[C@@H]1O [Celgosivir HCL]
CC50 at 6 days [1]: > 300 µM
pEC50 (RSV strain A2; MA104, visual examination, MA-104 cells, compounds tested at 0.3, 3, 30 and 300 microM): 4.43
pEC50 (RSV strain A2; against RSV, text summary over visual and neutral red assays): 4.43 to 4.47
efficacy against RSV infection (RSV strain A2; in vitro): efficacious
lung histopathology scores (RSV-induced inflammation) (RSV [strain A/A2] [2]; listed as Celgosivir): reduced inflammation at all doses on three of four histopathology parameters
lung histopathology scores (RSV-induced inflammation) (RSV [strain A/A2] [2]; listed as celgosivir): reduced for at least one domain for all doses
impact of timing of administration on degree of protection against inflammation (RSV [strain A/A2] [2]; dosing begun one day prior to vs one day after infection (FIG. 1)): minimal impact
nasal and lung viral titer (RSV [strain A/A2] [3]; listed as Celgosivir): no effect on viral titer in either the nose or the lung
nasal and lung viral titer (RSV [strain A/A2] [3]; listed as celgosivir): did not
pharmacokinetics, dose linearity [4]: linear with dose over the tolerated dose range
